{"source": "patent US20260138981A1", "about": "“DIHYDROFOLATE REDUCTASE INHIBITORS FOR ANTI-BIOTIC RESISTANT INFECTIONS” (THE TRUSTEES OF PRINCETON UNIVERSITY, priority 2022, published 2026)", "key": {"[1]": {"system": "PA14 mutants with disruptions in mexA, mexB and oprM", "test": "MIC against MexAB-OprM transposon mutants", "assay_type": "cell-based, P. aeruginosa", "details": "oprM transposon mutants vs wildtype PA14", "protocol": "FIG. 1I is the minimum inhibitory concentration of fluorofolin or trimethoprim against transposon mutants for each component of the MexAB-OprM efflux pump. MIC against wildtype PA14 was calculated to control for each drug stock. MIC values are representative of two independent replicates.\nP. aeruginosa PA14 transposon mutants were generated by the Ausubel Lab (http://ausubellab.mgh.harvard.edu/cgi-bin/pa14/home.cgi). The MICs of fluorofolin and TMP against strains with disrupted MexA, MexB, and OprM were determined as above and compared to the parental strain. As transposon mutants in MexB were represented twice in this collection, the MIC was confirmed across both mutant strains."}, "[2]": {"system": "P. aeruginosa PA01 and ATTC 27853, 5 ESKAPE pathogens", "test": "Growth inhibition of bacterial panel (summary statement)", "details": "PA01, ATTC 27853 and all 5 ESKAPE pathogens tested", "procedure": "Overnight cultures were diluted 1:150 in LB Broth and added to a 96-well plate. Antibiotics were serially diluted 1:2 and added to columns of the 96-well plate and grown at 37° C. with continuous shaking. Cell growth was measured by optical density (OD600).\n4-8 bacterial colonies of strains of interest were vortexed in saline and adjusted to an OD600 of 0.2. Strains were diluted 1:200 into CAMHB media into 96-well plates. Antibiotics were serially diluted 1:3 in DMSO, and 1 μL of each dilution was added to bacteria. The plates were incubated for 18-20 hours at 37° C. before observation."}}, "data": [{"molecule": "Nc1nc(N)c2c(ccc3c2ccn3Cc2ccnc(F)c2)n1", "note": "[fluorofolin]", "values": [{"measurement": "change of MIC in efflux pump mutants", "setting": "[1]", "value": "did not decrease their MIC against fluorofolin to the same extent"}, {"measurement": "concentration inhibiting growth", "setting": "[2]", "value": "less than 50 μg/mL"}]}]}
